Results from the CheMixHub viscosity set.

Assay: xn = mol fraction of the nth substance listed

CC(=O)Oc1ccccc1C(=O)O + CCCO
viscosity [mPa·s], 101 kPa
Details	x1 = 0.00057	x1 = 0.000763	x1 = 0.000955	x1 = 0.00115	x1 = 0.00134	x1 = 0.00153	x1 = 0.00191
293.15 K	2.257	2.26	2.261	2.262	2.265	2.266	2.27
298.15 K	2.207	2.209	2.21	2.211	2.213	2.215	2.217
303.15 K	1.718	1.719	1.719	1.721	1.722	1.723	1.726
308.15 K	1.622	1.623	1.624	1.625	1.626	1.627	1.628
310.15 K	1.458	1.459	1.459	1.46	1.46	1.461	1.461
313.15 K	1.397	1.398	1.399	1.399	1.399	1.4	1.401

CC(C)=O + CCCO
viscosity [mPa·s]
Details	293.15 K	298.15 K	303.15 K	308.15 K	313.15 K	318.15 K	323.15 K
100 kPa, x1 = 0.0998	1.594	1.433	1.292	1.169	1.061	0.9672	0.8879
100 kPa, x1 = 0.1998	1.18	1.075	0.9822	0.8994	0.825	0.7583	0.6972
100 kPa, x1 = 0.3	0.9113	0.8407	0.7774	0.7203	0.6684	0.6206	0.576
100 kPa, x1 = 0.4001	0.735	0.6844	0.6379	0.595	0.5538	0.5147	0.4769
100 kPa, x1 = 0.4999	0.6175	0.5801	0.5456	0.513	0.4815	0.4495	0.4195
100 kPa, x1 = 0.6	0.5137	0.4875	0.4629	0.4389	0.4158	0.392	0.3661
100 kPa, x1 = 0.6998	0.4493	0.429	0.4094	0.3911	0.3733	0.3543	0.3317
100 kPa, x1 = 0.8002	0.407	0.391	0.3751	0.3599	0.3448	0.3286	0.3156
100 kPa, x1 = 0.9	0.3728	0.3531	0.34	–	0.301	0.2875	0.279
100 kPa, x1 = 0.9001	–	–	–	0.3221	–	–	–
101 kPa, x1 = 0.1032	–	1.433	–	–	–	–	–
101 kPa, x1 = 0.2056	–	0.9891	–	–	–	–	–
101 kPa, x1 = 0.3073	–	0.7819	–	–	–	–	–
101 kPa, x1 = 0.4083	–	0.6403	–	–	–	–	–
101 kPa, x1 = 0.5086	–	0.5381	–	–	–	–	–
101 kPa, x1 = 0.6082	–	0.4652	–	–	–	–	–
101 kPa, x1 = 0.7072	–	0.4139	–	–	–	–	–
101 kPa, x1 = 0.8055	–	0.3742	–	–	–	–	–
101 kPa, x1 = 0.903	–	0.3453	–	–	–	–	–

COc1ccccc1 + CCCO
viscosity [mPa·s], 101 kPa
Details	x1 = 0.1207	x1 = 0.236	x1 = 0.3462	x1 = 0.4516	x1 = 0.5526	x1 = 0.6495	x1 = 0.7424	x1 = 0.8317	x1 = 0.9175
303 K	1.448	1.219	1.138	1.075	0.9286	0.8908	0.8219	0.8308	0.8695
313 K	1.176	1.046	0.9616	0.8924	0.7921	0.7847	0.7639	0.7523	0.7392
323 K	0.9186	0.8788	0.759	0.7338	0.6514	0.6115	0.6084	0.5967	0.598

Cc1ccccc1 + CCCO
Details	viscosity [mPa·s]
293.15 K, 100 kPa, x2 = 0.125	0.611
293.15 K, 100 kPa, x2 = 0.25	0.636
293.15 K, 100 kPa, x2 = 0.375	0.747
293.15 K, 100 kPa, x2 = 0.5	0.875
293.15 K, 100 kPa, x2 = 0.625	1.055
293.15 K, 100 kPa, x2 = 0.75	1.312
293.15 K, 100 kPa, x2 = 0.875	1.685
298.15 K, 100 kPa, x2 = 0.0553	0.5596
298.15 K, 100 kPa, x2 = 0.1089	0.572
298.15 K, 100 kPa, x2 = 0.1987	0.5972
298.15 K, 100 kPa, x2 = 0.319	0.6607
298.15 K, 100 kPa, x2 = 0.4308	0.7379
298.15 K, 100 kPa, x2 = 0.5349	0.7998
298.15 K, 100 kPa, x2 = 0.632	0.9538
298.15 K, 100 kPa, x2 = 0.723	1.116
298.15 K, 100 kPa, x2 = 0.8083	1.265
298.15 K, 100 kPa, x2 = 0.8884	1.563
298.15 K, 100 kPa, x2 = 0.9639	1.825
298.15 K, 101 kPa, x2 = 0.1	0.558
298.15 K, 101 kPa, x2 = 0.2	0.588
298.15 K, 101 kPa, x2 = 0.3	0.6389
298.15 K, 101 kPa, x2 = 0.4	0.7091
298.15 K, 101 kPa, x2 = 0.5	0.801
298.15 K, 101 kPa, x2 = 0.6	0.9211
298.15 K, 101 kPa, x2 = 0.7	1.08
298.15 K, 101 kPa, x2 = 0.8	1.292
298.15 K, 101 kPa, x2 = 0.9	1.576
303 K, 101 kPa, x1 = 0.1006	1.367
303 K, 101 kPa, x1 = 0.2012	1.171
303 K, 101 kPa, x1 = 0.3009	1.025
303 K, 101 kPa, x1 = 0.3981	0.902
303 K, 101 kPa, x1 = 0.5016	0.785
303 K, 101 kPa, x1 = 0.6052	0.699
303 K, 101 kPa, x1 = 0.7001	0.645
303 K, 101 kPa, x1 = 0.8095	0.598
303 K, 101 kPa, x1 = 0.9011	0.546
303.15 K, 101.33 kPa, x1 = 0.1141	1.376
303.15 K, 101.33 kPa, x1 = 0.1926	1.182
303.15 K, 101.33 kPa, x1 = 0.2912	0.982
303.15 K, 101.33 kPa, x1 = 0.3778	0.866
303.15 K, 101.33 kPa, x1 = 0.4778	0.761
303.15 K, 101.33 kPa, x1 = 0.6242	0.651
303.15 K, 101.33 kPa, x1 = 0.7421	0.587
303.15 K, 101.33 kPa, x1 = 0.8737	0.541
303.15 K, 101.33 kPa, x1 = 0.9517	0.527
308.15 K, 100 kPa, x2 = 0.0553	0.5017
308.15 K, 100 kPa, x2 = 0.1089	0.5107
308.15 K, 100 kPa, x2 = 0.1987	0.5293
308.15 K, 100 kPa, x2 = 0.319	0.572
308.15 K, 100 kPa, x2 = 0.4308	0.6289
308.15 K, 100 kPa, x2 = 0.5349	0.6996
308.15 K, 100 kPa, x2 = 0.632	0.7945
308.15 K, 100 kPa, x2 = 0.723	0.8952
308.15 K, 100 kPa, x2 = 0.8083	1.019
308.15 K, 100 kPa, x2 = 0.8884	1.24
308.15 K, 100 kPa, x2 = 0.9639	1.422
308.15 K, 101.33 kPa, x1 = 0.1141	1.251
308.15 K, 101.33 kPa, x1 = 0.1926	1.078
308.15 K, 101.33 kPa, x1 = 0.2912	0.899
308.15 K, 101.33 kPa, x1 = 0.3778	0.795
308.15 K, 101.33 kPa, x1 = 0.4778	0.703
308.15 K, 101.33 kPa, x1 = 0.6242	0.608
308.15 K, 101.33 kPa, x1 = 0.7421	0.553
308.15 K, 101.33 kPa, x1 = 0.8737	0.514
308.15 K, 101.33 kPa, x1 = 0.9517	0.499
313.15 K, 100 kPa, x2 = 0.125	0.479
313.15 K, 100 kPa, x2 = 0.25	0.495
313.15 K, 100 kPa, x2 = 0.375	0.554
313.15 K, 100 kPa, x2 = 0.5	0.625
313.15 K, 100 kPa, x2 = 0.625	0.728
313.15 K, 100 kPa, x2 = 0.75	0.876
313.15 K, 100 kPa, x2 = 0.875	1.087
313.15 K, 101.33 kPa, x1 = 0.1141	1.15
313.15 K, 101.33 kPa, x1 = 0.1926	0.99
313.15 K, 101.33 kPa, x1 = 0.2912	0.83
313.15 K, 101.33 kPa, x1 = 0.3778	0.736
313.15 K, 101.33 kPa, x1 = 0.4778	0.655
313.15 K, 101.33 kPa, x1 = 0.6242	0.57
313.15 K, 101.33 kPa, x1 = 0.7421	0.521
313.15 K, 101.33 kPa, x1 = 0.8737	0.491
313.15 K, 101.33 kPa, x1 = 0.9517	0.476
